Assay results as given in the supplement of paper PMC10307832.

Columns and labels:
Assay in all cases: relative viability (nuclei count vs DMSO), 5 days (fraction); higher = more cells survive
[1] = test system: LOU-NH91
Outline: (§1)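 Each reported value is a median over duplicate plates. It expresses relative viability: treated-well nuclei count divided by vehicle-well nuclei count. Lung cancer cell lines in 1536-well plates were dosed by pin tool a day after seeding, alone with one drug or with a fixed anchor-drug dose plus five library-drug doses (not always all listed) in √10 steps, and nuclei were counted after 5 days.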

[2] = test system: NCI-H1355
Outline: as §1

[3] = test system: NCI-H838
Outline: as §1

[4] = test system: HCC-366
Outline: as §1

[5] = test system: CAL-12T
Outline: as §1

[6] = test system: NCI-H1755
Outline: as §1

[7] = test system: NCI-H460
Outline: as §1

[8] = test system: HCC-44
Outline: as §1

[9] = test system: NCI-H1563
Outline: as §1

[10] = test system: NCI-H2085
Outline: as §1

[11] = test system: NCI-H1651
Outline: as §1

[12] = test system: NCI-H1975
Outline: as §1

[13] = test system: BEN
Outline: as §1

[14] = test system: LCLC-103H
Outline: as §1

[15] = test system: NCI-H1650
Outline: as §1

[16] = test system: NCI-H1437
Outline: as §1

[17] = test system: NCI-H1734
Outline: as §1

[18] = test system: HCC-15
Outline: as §1

[19] = test system: EKVX
Outline: as §1

[20] = test system: NCI-H441
Outline: as §1

[21] = test system: NCI-H2023
Outline: as §1

Which results are given for `COc1cc(N2CCC(C(N)=O)CC2)ccc1Nc1nc(N)c(Cl)c(Nc2ccccc2S(=O)(=O)C(C)C)n1` [HG-5-88-01] + CC(C)C[C@H](NC(=O)[C@H](Cc1ccccc1)NC(=O)c1cnccn1)B(O)O [Bortezomib] (partner 0.002 µM)?
relative viability ([1]; first compound 0.04 µM): 0.54; relative viability ([1]; first compound 0.1265 µM): 0.53; relative viability ([1]; first compound 0.4 µM): 0.472; relative viability ([1]; first compound 1.265 µM): 0.48; relative viability ([1]; first compound 4 µM): 0.48; relative viability ([2]; first compound 0.04 µM): 1.37; relative viability ([2]; first compound 0.1265 µM): 1.37; relative viability ([2]; first compound 0.4 µM): 1.21; relative viability ([2]; first compound 1.265 µM): 1.14; relative viability ([2]; first compound 4 µM): 0.96; relative viability ([3]; first compound 0.04 µM): 0.818; relative viability ([3]; first compound 0.1265 µM): 0.645; relative viability ([3]; first compound 0.4 µM): 0.759; relative viability ([3]; first compound 1.265 µM): 0.702; relative viability ([3]; first compound 4 µM): 0.333; relative viability ([4]; first compound 0.04 µM): 1.11; relative viability ([4]; first compound 0.1265 µM): 1.09; relative viability ([4]; first compound 0.4 µM): 0.972; relative viability ([4]; first compound 1.265 µM): 1.04; relative viability ([4]; first compound 4 µM): 1.24; relative viability ([5]; first compound 0.04 µM): 1.16; relative viability ([5]; first compound 0.1265 µM): 0.897; relative viability ([5]; first compound 0.4 µM): 0.837; relative viability ([5]; first compound 1.265 µM): 0.955; relative viability ([5]; first compound 4 µM): 0.579; relative viability ([6]; first compound 0.1265 µM): 0.911; relative viability ([6]; first compound 0.4 µM): 0.885; relative viability ([6]; first compound 1.265 µM): 0.92; relative viability ([6]; first compound 4 µM): 0.975; relative viability ([7]; first compound 0.04 µM): 0.955; relative viability ([7]; first compound 0.1265 µM): 1.17; relative viability ([7]; first compound 0.4 µM): 1.09; relative viability ([7]; first compound 1.265 µM): 1.04; relative viability ([7]; first compound 4 µM): 1.28; relative viability ([8]; first compound 0.04 µM): 0.901; relative viability ([8]; first compound 0.1265 µM): 0.868; relative viability ([8]; first compound 0.4 µM): 0.679; relative viability ([8]; first compound 1.265 µM): 0.832; relative viability ([8]; first compound 4 µM): 0.754; relative viability ([9]; first compound 0.04 µM): 0.827; relative viability ([9]; first compound 0.1265 µM): 0.92; relative viability ([9]; first compound 0.4 µM): 0.925; relative viability ([9]; first compound 1.265 µM): 0.765; relative viability ([9]; first compound 4 µM): 0.855; relative viability ([10]; first compound 0.04 µM): 0.986; relative viability ([10]; first compound 0.1265 µM): 1.13; relative viability ([10]; first compound 0.4 µM): 0.922; relative viability ([10]; first compound 1.265 µM): 1.01; relative viability ([10]; first compound 4 µM): 0.917; relative viability ([11]; first compound 0.04 µM): 0.844; relative viability ([11]; first compound 0.1265 µM): 0.935; relative viability ([11]; first compound 0.4 µM): 0.941; relative viability ([11]; first compound 1.265 µM): 0.976; relative viability ([11]; first compound 4 µM): 1.03; relative viability ([12]; first compound 0.04 µM): 0.349; relative viability ([12]; first compound 0.1265 µM): 0.452; relative viability ([12]; first compound 0.4 µM): 0.381; relative viability ([12]; first compound 1.265 µM): 0.344; relative viability ([12]; first compound 4 µM): 0.23; relative viability ([13]; first compound 0.04 µM): 0.652; relative viability ([13]; first compound 0.1265 µM): 0.752; relative viability ([13]; first compound 0.4 µM): 0.714; relative viability ([13]; first compound 1.265 µM): 0.841; relative viability ([13]; first compound 4 µM): 0.791; relative viability ([14]; first compound 0.04 µM): 1.02; relative viability ([14]; first compound 0.1265 µM): 0.995; relative viability ([14]; first compound 0.4 µM): 0.913; relative viability ([14]; first compound 1.265 µM): 1.01; relative viability ([14]; first compound 4 µM): 1.01; relative viability ([15]; first compound 0.04 µM): 0.207; relative viability ([15]; first compound 0.1265 µM): 0.219; relative viability ([15]; first compound 0.4 µM): 0.195; relative viability ([15]; first compound 1.265 µM): 0.185; relative viability ([15]; first compound 4 µM): 0.189; relative viability ([16]; first compound 0.04 µM): 0.491; relative viability ([16]; first compound 0.1265 µM): 0.477; relative viability ([16]; first compound 0.4 µM): 0.539; relative viability ([16]; first compound 1.265 µM): 0.401; relative viability ([16]; first compound 4 µM): 0.263; relative viability ([17]; first compound 0.04 µM): 0.899; relative viability ([17]; first compound 0.1265 µM): 0.975; relative viability ([17]; first compound 0.4 µM): 0.958; relative viability ([17]; first compound 1.265 µM): 0.868; relative viability ([17]; first compound 4 µM): 0.83; relative viability ([18]; first compound 0.04 µM): 1; relative viability ([18]; first compound 0.1265 µM): 1.09; relative viability ([18]; first compound 0.4 µM): 0.966; relative viability ([18]; first compound 1.265 µM): 1.02; relative viability ([18]; first compound 4 µM): 0.746; relative viability ([19]; first compound 0.04 µM): 1.09; relative viability ([19]; first compound 0.1265 µM): 1.02; relative viability ([19]; first compound 0.4 µM): 1.02; relative viability ([19]; first compound 4 µM): 0.854; relative viability ([20]; first compound 0.04 µM): 0.579; relative viability ([20]; first compound 0.1265 µM): 0.423; relative viability ([20]; first compound 0.4 µM): 0.622; relative viability ([20]; first compound 1.265 µM): 0.558; relative viability ([20]; first compound 4 µM): 0.379; relative viability ([21]; first compound 0.04 µM): 1.08; relative viability ([21]; first compound 0.1265 µM): 1.34; relative viability ([21]; first compound 0.4 µM): 0.753; relative viability ([21]; first compound 1.265 µM): 0.542; relative viability ([21]; first compound 4 µM): 0.454
